Drawing on patent US20170334934A1, “Macrocyclic picolinamides as fungicides” (DOW AGROSCIENCES LLC, priority 2014, published 2017), this text covers pest or weed control for 21 molecules.

Assay [1] has as its system Puccinia triticina. Briefly: Fungicidal activity: Wheat Brown Rust (PUCCRT), wheat seedlings. It counts as in vivo. To be noted: Low Volume (121.5 g/H). How it is done: Technical grades of materials were dissolved in acetone, which were then mixed with nine volumes of water containing 110 ppm Triton X-100. The fungicide solutions were applied onto wheat seedlings using an automated booth sprayer to run-off. All sprayed plants were allowed to air dry prior to further handling. All fungicides were evaluated using the aforementioned method for their activity vs. all target diseases, unless stated otherwise. Wheat leaf blotch and brown rust activity were also evaluated using track spray applications, in which case the fungicides were formulated as EC formulations, containing 0.1% Trycol 5941 in the spray solutions. Wheat plants (variety Yuma) were grown from seed in a greenhouse in 50% mineral soil/50% soil-less Metro mix until the first leaf was fully emerged, with 7-10 seedlings per pot. These plants were inoculated with an aqueous spore suspension of Zymoseptoria tritici either prior to or after fungicide treatments. After inoculation the plants were kept in 100% relative humidity (one day in a dark dew chamber followed by two to three days in a lighted dew chamber at 20° C.) to permit spores to germinate and infect the leaf. The plants were then transferred to a greenhouse set at 20° C. for disease to develop. When disease symptoms were fully expressed on the 1st leaves of untreated plants, infection levels were assessed on a scale of 0 to 100 percent disease severity. Percent disease control was calculated using the ratio of disease severity on treated plants relative to untreated plants. Example B: Evaluation of Fungicidal Activity: Wheat Brown Rust (Puccinia triticina; Synonym: Puccinia recondita f. sp. tritici; Bayer Code PUCCRT) Wheat plants (variety Yuma) were grown from seed in a greenhouse in 50% mineral soil/50% soil-less Metro mix until the first leaf was fully emerged, with 7-10 seedlings per pot. These plants were inoculated with an aqueous spore suspension of Puccinia triticina either prior to or after fungicide treatments. After inoculation the plants were kept in a dark dew room at 22° C. with 100% relative humidity overnight to permit spores to germinate and infect the leaf. The plants were then transferred to a greenhouse set at 24° C. for disease to develop. Fungicide formulation, application and disease assessment followed the procedures as described in the Example A.

In assay [2] the test system is Mycosphaerella graminicola; Anamorph: Zymoseptoria tritici. Briefly: Fungicidal activity: Leaf Blotch of Wheat (SEPTTR), wheat seedlings. It is filed as in vivo. Conditions: Low Volume (121.5 g/H), wheat. Here is the method:
Example A: Evaluation of Fungicidal Activity: Leaf Blotch of Wheat (Mycosphaerella graminicola; Anamorph: Zymoseptoria tritici; Bayer Code […]) Technical grades of materials were dissolved in acetone, which were then mixed with nine volumes of water containing 110 ppm Triton X-100. The fungicide solutions were applied onto wheat seedlings using an automated booth sprayer to run-off. All sprayed plants were allowed to air dry prior to further handling. All fungicides were evaluated using the aforementioned method for their activity vs. all target diseases, unless stated otherwise. Wheat leaf blotch and brown rust activity were also evaluated using track spray applications, in which case the fungicides were formulated as EC formulations, containing 0.1% Trycol 5941 in the spray solutions. Wheat plants (variety Yuma) were grown from seed in a greenhouse in 50% mineral soil/50% soil-less Metro mix until the first leaf was fully emerged, with 7-10 seedlings per pot. These plants were inoculated with an aqueous spore suspension of Zymoseptoria tritici either prior to or after fungicide treatments. After inoculation the plants were kept in 100% relative humidity (one day in a dark dew chamber followed by two to three days in a lighted dew chamber at 20° C.) to permit spores to germinate and infect the leaf. The plants were then transferred to a greenhouse set at 20° C. for disease to develop. When disease symptoms were fully expressed on the 1st leaves of untreated plants, infection levels were assessed on a scale of 0 to 100 percent disease severity. Percent disease control was calculated using the ratio of disease severity on treated plants relative to untreated plants.

Where [3] appears, read: 24 h, 1 Day Protectant, read-out: PUCCRT disease control rating, 1DP.
Where [4] appears, read: 72 h, 3 Day Curative, read-out: PUCCRT disease control rating, 3DC.
The mark [5] stands for this setting: 24 h, 1 Day Protectant, read-out: SEPTTR disease control rating, 1DP.
[6] abbreviates: 72 h, 3 Day Curative, read-out: SEPTTR disease control rating, 3DC.

Molecules are shown by their SMILES. Where two headings read alike, the source gives them in different places. Some results are limits rather than exact numbers.

On to `COc1ccnc(C(=O)N[C@H]2CCO[C@H](Cc3ccccc3)[C@@H](OCC(C)C)[C@H](C)OC2=O)c1OCOC(C)=O` [Compound 72], for which the pest or weed control at 121.5 g/ha in assay [1] (setting [3]), in assay [1] (setting [4]), in assay [2] (setting [5]) and in assay [2] (setting [6]) was greater than 70% throughout.

For the molecule `COc1ccnc(C(=O)N[C@H]2CCO[C@H](Cc3ccc(F)cc3)[C@@H](Oc3ccccc3)[C@H](C)OC2=O)c1OCOC(C)=O` [Compound 73], the pest or weed control at 121.5 g/ha in assay [1] (setting [3]), in assay [1] (setting [4]), in assay [2] (setting [5]) and in assay [2] (setting [6]) was greater than 70% throughout.

Take `COc1ccnc(C(=O)N[C@H]2CCO[C@H](Cc3ccc(F)cc3)[C@@H](OC(=O)C(C)C)[C@H](C)OC2=O)c1OCOC(C)=O` [Compound 74]: the pest or weed control at 121.5 g/ha in assay [1] (setting [3]), in assay [1] (setting [4]), in assay [2] (setting [5]) and in assay [2] (setting [6]) was greater than 70% in each case.

Consider `COc1ccnc(C(=O)N[C@H]2CCO[C@H](Cc3ccc(F)cc3)[C@@H](Oc3ccccc3)[C@H](C)OC2=O)c1OC(C)=O` [Compound 75], for which the pest or weed control at 121.5 g/ha was greater than 70% in assay [1] (setting [3]), greater than 70% in assay [1] (setting [4]), greater than 70% in assay [2] (setting [5]) and less than 70% in assay [2] (setting [6]).

In the case of `COc1ccnc(C(=O)N[C@H]2CCO[C@H](Cc3ccc(F)cc3)[C@@H](OC(=O)C(C)C)[C@H](C)OC2=O)c1OC(C)=O` [Compound 76], the pest or weed control at 121.5 g/ha in assay [1] (setting [3]), in assay [1] (setting [4]), in assay [2] (setting [5]) and in assay [2] (setting [6]) was greater than 70% throughout.

With `COc1ccnc(C(=O)N[C@H]2CCO[C@H](Cc3ccc(F)cc3)[C@@H](OCC(C)C)[C@H](C)OC2=O)c1OC(C)=O` [Compound 77], the pest or weed control at 121.5 g/ha in assay [1] (setting [3]), in assay [1] (setting [4]), in assay [2] (setting [5]) and in assay [2] (setting [6]) was greater than 70% in each case.

With `C=CCO[C@H]1[C@H](C)OC(=O)[C@@H](NC(=O)c2nccc(OC)c2OCOC(C)=O)CCO[C@@H]1Cc1ccc(F)cc1` [Compound 78], the pest or weed control at 121.5 g/ha in assay [1] (setting [3]) was greater than 70%; in assay [1] (setting [4]), greater than 70%; in assay [2] (setting [5]) it was less than 70%; in assay [2] (setting [6]) it was less than 70%.

Regarding `CCCO[C@H]1[C@H](C)OC(=O)[C@@H](NC(=O)c2nccc(OC)c2OCOC(C)=O)CCO[C@@H]1Cc1ccc(F)cc1` [Compound 79, ((2-(((2R,3S,4S,7S)-2-(4-fluorobenzyl)-4-methyl-6-oxo-3-propoxy-1,5-dioxonan-7-yl)carbamoyl)-4-methoxypyridin-3-yl)oxy)methyl acetate], the pest or weed control at 121.5 g/ha in assay [1] (setting [3]), in assay [1] (setting [4]), in assay [2] (setting [5]) and in assay [2] (setting [6]) was greater than 70% throughout.

Turning to `C=CCO[C@H]1[C@H](C)OC(=O)[C@@H](NC(=O)c2nccc(OC)c2OC(C)=O)CCO[C@@H]1Cc1ccc(F)cc1` [Compound 80], the pest or weed control at 121.5 g/ha in assay [1] (setting [3]), in assay [1] (setting [4]), in assay [2] (setting [5]) and in assay [2] (setting [6]) was less than 70% each time.

With `CCCO[C@H]1[C@H](C)OC(=O)[C@@H](NC(=O)c2nccc(OC)c2OC(C)=O)CCO[C@@H]1Cc1ccc(F)cc1` [Compound 81, 2-(((2R,3S,4S,7S)-2-(4-fluorobenzyl)-4-methyl-6-oxo-3-propoxy-1,5-dioxonan-7-yl)carbamoyl)-4-methoxypyridin-3-yl acetate], the pest or weed control at 121.5 g/ha in assay [1] (setting [3]), in assay [1] (setting [4]), in assay [2] (setting [5]) and in assay [2] (setting [6]) was less than 70% each time.

Take `COc1ccnc(C(=O)N[C@H]2CCO[C@H](Cc3ccccc3)[C@@H](Oc3ccccc3)[C@H](C)OC2=O)c1OCOC(C)=O` [Compound 82]: the pest or weed control at 121.5 g/ha in assay [1] (setting [3]), in assay [1] (setting [4]), in assay [2] (setting [5]) and in assay [2] (setting [6]) was greater than 70% in each case.

Take `COc1ccnc(C(=O)N[C@H]2CCO[C@H](Cc3ccccc3)[C@@H](Oc3ccccc3)[C@H](C)OC2=O)c1OC(C)=O` [Compound 83]: the pest or weed control at 121.5 g/ha in assay [1] (setting [3]), in assay [1] (setting [4]), in assay [2] (setting [5]) and in assay [2] (setting [6]) was greater than 70% each time.

Regarding `COc1ccnc(C(=O)N[C@H]2CCO[C@H](CC3CCCC3)[C@@H](Oc3ccccc3)[C@H](C)OC2=O)c1OCOC(C)=O` [Compound 85], the pest or weed control at 121.5 g/ha in assay [1] (setting [3]), in assay [1] (setting [4]), in assay [2] (setting [5]) and in assay [2] (setting [6]) was greater than 70% each time.

For `COc1ccc(C[C@H]2OCC[C@H](NC(=O)c3nccc(OC)c3OCOC(C)=O)C(=O)O[C@@H](C)[C@@H]2OCC2CC2)cc1` [Compound 86], the pest or weed control at 121.5 g/ha in assay [1] (setting [3]) was greater than 70%; in assay [1] (setting [4]) it was greater than 70%; in assay [2] (setting [5]), greater than 70%; in assay [2] (setting [6]), less than 70%.

As to `COc1ccc(C[C@H]2OCC[C@H](NC(=O)c3nccc(OC)c3OCOC(C)=O)C(=O)O[C@@H](C)[C@@H]2Oc2ccccc2)cc1` [Compound 87], the pest or weed control at 121.5 g/ha in assay [1] (setting [3]) was greater than 70%; in assay [1] (setting [4]), greater than 70%; in assay [2] (setting [5]), greater than 70%; in assay [2] (setting [6]), less than 70%.

Consider `C=C(C)CO[C@H]1[C@H](C)OC(=O)[C@@H](NC(=O)c2nccc(OC)c2OCOC(C)=O)CCO[C@@H]1CC` [Compound 88], for which the pest or weed control at 121.5 g/ha is greater than 70% in assay [1] (setting [3]), greater than 70% in assay [1] (setting [4]), less than 70% in assay [2] (setting [5]) and less than 70% in assay [2] (setting [6]).

As for `CC[C@H]1OCC[C@H](NC(=O)c2nccc(OC)c2OCOC(C)=O)C(=O)O[C@@H](C)[C@@H]1OCC(C)C` [Compound 89], the pest or weed control at 121.5 g/ha in assay [1] (setting [3]), in assay [1] (setting [4]), in assay [2] (setting [5]) and in assay [2] (setting [6]) was greater than 70% each time.

For `CC[C@H]1OCC[C@H](NC(=O)c2nccc(OC)c2OCOC(C)=O)C(=O)O[C@@H](C)[C@@H]1Oc1ccccc1` [Compound 90], the pest or weed control at 121.5 g/ha in assay [1] (setting [3]), in assay [1] (setting [4]), in assay [2] (setting [5]) and in assay [2] (setting [6]) was greater than 70% throughout.

As to `CC[C@H]1OCC[C@H](NC(=O)c2nccc(OC)c2OCOC(C)=O)C(=O)O[C@@H](C)[C@@H]1Oc1ccc(F)cc1` [Compound 91], the pest or weed control at 121.5 g/ha in assay [1] (setting [3]), in assay [1] (setting [4]), in assay [2] (setting [5]) and in assay [2] (setting [6]) was greater than 70% each time.

Consider `C=C(C)CO[C@H]1[C@H](C)OC(=O)[C@@H](NC(=O)c2nccc(OC)c2OC(C)=O)CCO[C@@H]1CC` [Compound 92], for which the pest or weed control at 121.5 g/ha in assay [1] (setting [3]) is greater than 70%; in assay [1] (setting [4]), greater than 70%; in assay [2] (setting [5]), less than 70%; in assay [2] (setting [6]) it was less than 70%.

As to `CC[C@H]1OCC[C@H](NC(=O)c2nccc(OC)c2OC(C)=O)C(=O)O[C@@H](C)[C@@H]1OCC(C)C` [Compound 93], the pest or weed control at 121.5 g/ha in assay [1] (setting [3]), in assay [1] (setting [4]), in assay [2] (setting [5]) and in assay [2] (setting [6]) was greater than 70% in each case.
